The results in this text go back to PMC5041959, “A high-content EMT screen identifies multiple receptor tyrosine kinase inhibitors with activity on TGFβ receptor” (Oncotarget, 2016).

For this assay, the system named is NMuMG cells. Briefly: High-content microscopy EMT screen in TGFβ-treated NMuMG cells (FA, SF, FN, cell count). Type of assay: cell-based, murine. The following applies: for CCI IC50 (cell count increase): cell count increased by 50% compared to 100% with 10 μM SB-431542.
The mark [1] stands for this setting: Mus musculus, NMuMG, cell count decreased by 50% compared to DMSO control, read-out: Tox IC50.
Where [2] appears, read: NMuMG, TGFβ1 2 ng/ml plus compound, 4 days, parameter decreased by 50%.
The mark [3] stands for this setting: NMuMG, compared to reference 10 μM SB-431542 = 100%.
Where [4] appears, read: NMuMG, cell count decreased by 50% compared to DMSO control, read-out: Tox IC50.

Each structure is given as a SMILES string. Like-named read-outs stand apart in the source and are kept apart here.

`Nc1ncn([C@H]2C[C@H](O)[C@@H](CO)O2)c(=O)n1` [5-Aza-2′-deoxycytidine]: the IC50 under setting [1] was found to be 391 nM. Also, under setting [2], the “FA IC50 (focal adhesion formation)” value is reported as “n.m”, the “FN IC50 (fibronectin patch formation)” value is reported as “n.m” and the “SF IC50 (stress fibers)” value is on record as “n.m”. Under setting [3], the “Emax (maximal effect on cell count)” value is recorded as “n.m”.

As for `Nc1ncn([C@@H]2O[C@H](CO)[C@@H](O)[C@H]2O)c(=O)n1` [5-Azacytidine], under setting [1], the IC50 turned out to be 1260 nM. Moreover, under setting [2], the “FA IC50 (focal adhesion formation)” value is listed as “n.m”, the “FN IC50 (fibronectin patch formation)” value is reported as “n.m” and the “SF IC50 (stress fibers)” value was “n.m”. The “Emax (maximal effect on cell count)” value under setting [3] is listed as “n.m”.

As for `O=c1[nH]c(=O)n([C@H]2C[C@H](O)[C@@H](CO)O2)cc1Br` [5-Bromo-2′-deoxyuridine], the half-maximal inhibitory concentration (IC50) is, setting by setting: (Mus musculus, 96 h, NMuMG, TGFβ1 2 ng/ml plus compound, 4 days, parameter decreased by 50%, read-out: FA IC50 (focal adhesion formation)) 719 nM; (Mus musculus, 96 h, NMuMG, TGFβ1 2 ng/ml plus compound, 4 days, parameter decreased by 50%, read-out: FN IC50 (fibronectin patch formation)) 321 nM; (Mus musculus, 96 h, NMuMG, TGFβ1 2 ng/ml plus compound, 4 days, parameter decreased by 50%, read-out: SF IC50 (stress fibers)) 632 nM; under setting [1], above 3000 nM; (Mus musculus, read-out: CCI IC50 (cell count increase)) 300 nM. In addition, where the note is “Mus musculus, read-out: Emax (maximal effect on cell count)”, the Emax amounted to 19%.

For `CCN1CCN(Cc2ccc(-c3cc4c(N[C@H](C)c5ccccc5)ncnc4[nH]3)cc2)CC1` [AEE788], under setting [1], the IC50 was 44 nM. Moreover, under setting [2], the “FA IC50 (focal adhesion formation)” value is given as “n.m”, the “FN IC50 (fibronectin patch formation)” value was “n.m” and the “SF IC50 (stress fibers)” value is “n.m”. Also, the “Emax (maximal effect on cell count)” value under setting [3] is reported as “n.m”.

Take `CNC(=O)c1ccccc1Sc1ccc2c(/C=C/c3ccccn3)n[nH]c2c1` [Axitinib]: the “Emax (maximal effect on cell count)” value under setting [3] is “n.m”.

In the case of `COc1cc2c(Oc3ccc4[nH]c(C)cc4c3F)ncnc2cc1OCCCN1CCCC1` [Cediranib (azd2171), Cediranib], the half-maximal inhibitory concentration (IC50) under setting [1] was 967 nM. Also, under setting [2], the “FA IC50 (focal adhesion formation)” value is listed as “n.m”, the “FN IC50 (fibronectin patch formation)” value is reported as “n.m” and the “SF IC50 (stress fibers)” value is given as “n.m”. The “Emax (maximal effect on cell count)” value under setting [3] is on record as “n.m”.

For the compound `C[C@@H](Oc1cc(-c2cnn(C3CCNCC3)c2)cnc1N)c1c(Cl)ccc(F)c1Cl` [Crizotinib], the half-inhibitory concentration (IC50) under setting [1] was 1720 nM. In addition, under setting [2], the “FA IC50 (focal adhesion formation)” value is “n.m”, the “FN IC50 (fibronectin patch formation)” value is listed as “n.m” and the “SF IC50 (stress fibers)” value is listed as “n.m”. Further, the “Emax (maximal effect on cell count)” value under setting [3] was “n.m”.

For `Cc1nc(Nc2ncc(C(=O)Nc3c(C)cccc3Cl)s2)cc(N2CCN(CCO)CC2)n1` [Dasatinib], under setting [1], the IC50 was determined as 50.9 nM. Further, under setting [2], the “FA IC50 (focal adhesion formation)” value was “n.m”, the “FN IC50 (fibronectin patch formation)” value is “n.m” and the “SF IC50 (stress fibers)” value is on record as “n.m”. Also, the “Emax (maximal effect on cell count)” value under setting [3] is recorded as “n.m”.

Turning to `c1ccc2c(c1)[I+]c1ccccc1-2` [Diphenyleneiodonium chloride (DPI), Diphenyleneiodonium chloride], the 50% inhibitory concentration (IC50) under setting [1] was found to be 453 nM. Moreover, under setting [2], the “FA IC50 (focal adhesion formation)” value was “n.m”, the “FN IC50 (fibronectin patch formation)” value is “n.m” and the “SF IC50 (stress fibers)” value was “n.m”. Also, the “Emax (maximal effect on cell count)” value under setting [3] is “n.m”.

For `C#Cc1cccc(Nc2ncnc3cc(OCCOC)c(OCCOC)cc23)c1` [Erlotinib], the “Emax (maximal effect on cell count)” value was “n.m”. Moreover, the IC50 under setting [1] is 68.5 nM. In addition, under setting [2], the “FA IC50 (focal adhesion formation)” value is “n.m”, the “FN IC50 (fibronectin patch formation)” value is reported as “n.m” and the “SF IC50 (stress fibers)” value is reported as “n.m”.

With `COc1cc([C@@H]2c3cc4c(cc3[C@@H](O[C@@H]3O[C@@H]5CO[C@@H](C)O[C@H]5[C@H](O)[C@H]3O)[C@H]3COC(=O)[C@H]23)OCO4)cc(OC)c1O` [Etoposide], the IC50 under setting [1] stood at 1170 nM. Under setting [2], the “FA IC50 (focal adhesion formation)” value is given as “n.m”, the “FN IC50 (fibronectin patch formation)” value is reported as “n.m” and the “SF IC50 (stress fibers)” value was “n.m”. Also, the “Emax (maximal effect on cell count)” value under setting [3] is given as “n.m”.

For `COc1cc2ncnc(Nc3ccc(F)c(Cl)c3)c2cc1OCCCN1CCOCC1` [Gefitinib], the “Emax (maximal effect on cell count)” value is recorded as “n.m”.

In the case of `O=C(Cc1ccc(-c2ccc(OCCN3CCOCC3)cc2)cn1)NCc1ccccc1` [KX2-391], under setting [2], the “FA IC50 (focal adhesion formation)” value is listed as “n.m”, the “FN IC50 (fibronectin patch formation)” value is on record as “n.m” and the “SF IC50 (stress fibers)” value is on record as “n.m”. Also, the IC50 under setting [4] was 15 nM. Moreover, the “CCI IC50 (cell count increase)” value (NMuMG) is “n.m”. Also, under setting [3], the “Emax (maximal effect on cell count)” value was “n.m”.

Consider `CS(=O)(=O)CCNCc1ccc(-c2ccc3ncnc(Nc4ccc(OCc5cccc(F)c5)c(Cl)c4)c3c2)o1` [Lapatinib], for which the 50% inhibitory concentration (IC50) under setting [1] turned out to be 134 nM. Further, under setting [2], the “FA IC50 (focal adhesion formation)” value is “n.m”, the “FN IC50 (fibronectin patch formation)” value is reported as “n.m” and the “SF IC50 (stress fibers)” value is listed as “n.m”. For the same compound, under setting [3], the “Emax (maximal effect on cell count)” value was “n.m”.

With `CO[C@@H]1C[C@@H](C[C@H]2CC[C@H](C)[C@H]([C@@H](C)C(=O)O)O2)O[C@]2(O[C@](C)([C@H]3CC[C@@](C)([C@@H]4O[C@@H]([C@H]5O[C@@](O)(CO)[C@H](C)C[C@@H]5C)C[C@@H]4C)O3)C[C@H]2C)[C@@H]1C` [Nigericin], under setting [1], the IC50 was below 40 nM. Under setting [2], the “FA IC50 (focal adhesion formation)” value is given as “n.m”, the “FN IC50 (fibronectin patch formation)” value is “n.m” and the “SF IC50 (stress fibers)” value was “n.m”. The “Emax (maximal effect on cell count)” value under setting [3] is “n.m”.

Regarding `CC(C)(C)n1nc(-c2ccc(Cl)cc2)c2c(N)ncnc21` [PP2], under setting [2], the “FA IC50 (focal adhesion formation)” value was “n.m”, the “FN IC50 (fibronectin patch formation)” value is listed as “n.m” and the “SF IC50 (stress fibers)” value is listed as “n.m”. The 50% inhibitory concentration (IC50) under setting [4] came out at 4730 nM. Moreover, the “CCI IC50 (cell count increase)” value (NMuMG) was “n.m”. Besides, under setting [3], the “Emax (maximal effect on cell count)” value is listed as “n.m”.

In the case of `CC[C@@H](C(=O)[C@@H](C)[C@@H](O)[C@H](C)[C@@H]1O[C@@H]([C@@H](CC)C(=O)O)CC[C@@H]1C)[C@H]1O[C@]2(C=C[C@@H](O)[C@]3(CC[C@@](C)([C@H]4CC[C@](O)(CC)[C@H](C)O4)O3)O2)[C@H](C)C[C@@H]1C` [Salinomycin], the “Emax (maximal effect on cell count)” value is recorded as “n.m”. The IC50 under setting [1] was 240 nM. Moreover, under setting [2], the “FA IC50 (focal adhesion formation)” value is given as “n.m”, the “FN IC50 (fibronectin patch formation)” value is reported as “n.m” and the “SF IC50 (stress fibers)” value was “n.m”.

For the compound `CCN(CC)CCNC(=O)c1c(C)[nH]c(/C=C2\C(=O)Nc3ccc(F)cc32)c1C` [Sunitinib malate], under setting [1], the half-maximal inhibitory concentration (IC50) worked out at 5100 nM. Under setting [2], the “FA IC50 (focal adhesion formation)” value is listed as “n.m”, the “FN IC50 (fibronectin patch formation)” value is recorded as “n.m” and the “SF IC50 (stress fibers)” value was “n.m”. For the same compound, the “Emax (maximal effect on cell count)” value under setting [3] was “n.m”.

Take `N#CC(=C(/N)Sc1ccccc1N)/C(C#N)=C(/N)Sc1ccccc1N` [U0126]: under setting [2], the “FA IC50 (focal adhesion formation)” value is “n.m”, the “FN IC50 (fibronectin patch formation)” value is recorded as “n.m” and the “SF IC50 (stress fibers)” value is on record as “n.m”. Besides, under setting [4], the 50% inhibitory concentration (IC50) came out at 1600 nM. The “CCI IC50 (cell count increase)” value (NMuMG) is reported as “n.m”. The “Emax (maximal effect on cell count)” value under setting [3] is “n.m”.

`COc1cc2c(Nc3ccc(Br)cc3F)ncnc2cc1OCC1CCN(C)CC1` [Vandetanib]: the IC50 under setting [1] came to 208 nM. Under setting [2], the “FA IC50 (focal adhesion formation)” value is “n.m”, the “FN IC50 (fibronectin patch formation)” value is on record as “n.m” and the “SF IC50 (stress fibers)” value is listed as “n.m”. Also, the “Emax (maximal effect on cell count)” value under setting [3] was “n.m”.

By IC50 is commonly meant the concentration that gives 50% inhibition. A word on the Emax: it is the greatest response seen or fitted, relative to the assay's reference.
